Source: US8802597B2, “Herbicidal pyrimidines” (E I du Pont de Nemours and Company, priority 2003, dated 2014)
Where two headings read alike, the source gives them in different places.

Key:
Assay in all cases: Test C pre/postemergence
Type in all cases: in vivo
[1] = tested on: common ragweed (Ambrosia elatior); settings: Ambrosia artemisiifolia; for pest or weed control at 31 g/ha: 31 g ai/ha; for pest or weed control at 62 g/ha: 62 g ai/ha; for pest or weed control at 125 g/ha: 125 g ai/ha; for pest or weed control at 250 g/ha: 250 g ai/ha
In short: (§1)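 Applications: preemergence onto seeded soil and postemergence onto 1- to 4-leaf seedlings, compound carried in non-phytotoxic solvent plus surfactant. Kept in greenhouse 12 to 14 days. Scored visually relative to untreated controls, 0 (no effect) to 100 (complete control).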

[2] = tested on: lambsquarters (Chenopodium album); settings: Chenopodium album; for pest or weed control at 31 g/ha: 31 g ai/ha; for pest or weed control at 62 g/ha: 62 g ai/ha; for pest or weed control at 125 g/ha: 125 g ai/ha; for pest or weed control at 250 g/ha: 250 g ai/ha
In short: as §1

[3] = tested on: woolly cupgrass (Eriochloa villosa); settings: Eriochloa villosa; for pest or weed control at 31 g/ha: 31 g ai/ha; for pest or weed control at 62 g/ha: 62 g ai/ha; for pest or weed control at 125 g/ha: 125 g ai/ha
In short: as §1

soybean (Glycine max) = settings: Glycine max; for plant injury at 31 g/ha: 31 g ai/ha; for plant injury at 62 g/ha: 62 g ai/ha; for plant injury at 125 g/ha: 125 g ai/ha; for plant injury at 250 g/ha: 250 g ai/ha
In short: as §1

[4] = tested on: giant foxtail (Setaria faberii); settings: Setaria faberi; for pest or weed control at 125 g/ha: 125 g ai/ha; for pest or weed control at 31 g/ha: 31 g ai/ha; for pest or weed control at 62 g/ha: 62 g ai/ha; for pest or weed control at 250 g/ha: 250 g ai/ha
In short: as §1

[5] = tested on: Surinam grass (Brachiaria decumbens); settings: Urochloa decumbens; for pest or weed control at 125 g/ha: 125 g ai/ha; for pest or weed control at 62 g/ha: 62 g ai/ha
In short: as §1

[6] = post-emergence, Postemergence, scale 0 to 100 (0 no effect, 100 complete control), read-out: Ragweed plant response rating
[7] = pre-emergence, Preemergence, scale 0 to 100, 0 no effect, 100 complete control, read-out: Plant response rating, Ragweed
[8] = pre-emergence, Preemergence, scale 0 to 100, read-out: Plant response rating, Ragweed
[9] = post-emergence, Postemergence, scale 0 to 100 (0 no effect, 100 complete control), read-out: Lambsquarters plant response rating
[10] = pre-emergence, Preemergence, scale 0 to 100, 0 no effect, 100 complete control, read-out: Plant response rating, Lambsquarters
[11] = pre-emergence, Preemergence, scale 0 to 100, read-out: Plant response rating, Lambsquarters
[12] = post-emergence, Postemergence, scale 0 to 100 (0 no effect, 100 complete control), read-out: Cupgrass, Woolly plant response rating
[13] = pre-emergence, Preemergence, scale 0 to 100, 0 no effect, 100 complete control, read-out: Plant response rating, Cupgrass, Woolly
[14] = post-emergence, Postemergence, scale 0 to 100 (0 no effect, 100 complete control), read-out: Soybean plant response rating
[15] = pre-emergence, Preemergence, scale 0 to 100, 0 no effect, 100 complete control, read-out: Plant response rating, Soybean
[16] = pre-emergence, Preemergence, scale 0 to 100, read-out: Plant response rating, Soybean
[17] = post-emergence, Postemergence, scale 0 to 100 (0 no effect, 100 complete control), read-out: Foxtail, Giant plant response rating
[18] = pre-emergence, Preemergence, scale 0 to 100, 0 no effect, 100 complete control, read-out: Plant response rating, Foxtail, Giant
[19] = pre-emergence, Preemergence, scale 0 to 100, read-out: Plant response rating, Foxtail, Giant
[20] = post-emergence, Postemergence, scale 0 to 100 (0 no effect, 100 complete control), read-out: Surinam Grass plant response rating

CCOC(=O)c1nc(-c2ccc(Cl)cc2)nc(N)c1Cl [Compound 64, ethyl 6-amino-5-chloro-2-(4-chlorophenyl)-4-pyrimidinecarboxylate]
pest or weed control at 31 g/ha ([1]; post-emergence, Postemergence, read-out: Plant response rating (scale of 0 to 100), Ragweed): 75%
pest or weed control at 62 g/ha [1, 6]: 80%
pest or weed control at 125 g/ha [1, 6]: 85%
pest or weed control at 250 g/ha ([1]; post-emergence, Postemergence, scale 0 to 100, read-out: Plant response rating, Ragweed): 90%
pest or weed control at 31 g/ha [1, 7]: 85%
pest or weed control at 62 g/ha [1, 7]: 85%
pest or weed control at 125 g/ha [1, 8]: 95%
pest or weed control at 250 g/ha [1, 8]: 100%
pest or weed control at 31 g/ha ([2]; post-emergence, Postemergence, read-out: Plant response rating (scale of 0 to 100), Lambsquarters): 80%
pest or weed control at 62 g/ha [2, 9]: 90%
pest or weed control at 125 g/ha [2, 9]: 90%
pest or weed control at 250 g/ha ([2]; post-emergence, Postemergence, scale 0 to 100, read-out: Plant response rating, Lambsquarters): 90%
pest or weed control at 31 g/ha [2, 10]: 70%
pest or weed control at 62 g/ha [2, 10]: 95%
pest or weed control at 125 g/ha [2, 11]: 95%
pest or weed control at 250 g/ha [2, 11]: 100%
pest or weed control at 31 g/ha ([3]; post-emergence, Postemergence, read-out: Plant response rating (scale of 0 to 100), Cupgrass, Woolly): 30%
pest or weed control at 62 g/ha [3, 12]: 40%
pest or weed control at 125 g/ha [3, 12]: 65%
pest or weed control at 31 g/ha [3, 13]: 0%
pest or weed control at 62 g/ha [3, 13]: 0%
pest or weed control at 125 g/ha ([3]; pre-emergence, Preemergence, scale 0 to 100, read-out: Plant response rating, Cupgrass, Woolly): 0%
pest or weed control at 250 g/ha ([3]; pre-emergence, Preemergence, 250 g ai/ha, scale 0 to 100, read-out: Plant response rating, Cupgrass, Woolly): 40%
plant injury at 31 g/ha (soybean (Glycine max); post-emergence, Postemergence, read-out: Plant response rating (scale of 0 to 100), Soybean): 90%
plant injury at 62 g/ha (soybean (Glycine max); [14]): 90%
plant injury at 125 g/ha (soybean (Glycine max); [14]): 100%
plant injury at 250 g/ha (soybean (Glycine max); post-emergence, Postemergence, scale 0 to 100, read-out: Plant response rating, Soybean): 100%
plant injury at 31 g/ha (soybean (Glycine max); [15]): 0%
plant injury at 62 g/ha (soybean (Glycine max); [15]): 85%
plant injury at 125 g/ha (soybean (Glycine max); [16]): 85%
plant injury at 250 g/ha (soybean (Glycine max); [16]): 85%
pest or weed control at 125 g/ha [4, 17]: 50%
pest or weed control at 31 g/ha ([4]; post-emergence, Postemergence, read-out: Plant response rating (scale of 0 to 100), Foxtail, Giant): 0%
pest or weed control at 62 g/ha [4, 17]: 20%
pest or weed control at 250 g/ha ([4]; post-emergence, Postemergence, scale 0 to 100, read-out: Plant response rating, Foxtail, Giant): 50%
pest or weed control at 31 g/ha [4, 18]: 0%
pest or weed control at 62 g/ha [4, 18]: 0%
pest or weed control at 125 g/ha [4, 19]: 0%
pest or weed control at 250 g/ha [4, 19]: 0%
pest or weed control at 125 g/ha [5, 20]: 60%
pest or weed control at 31 g/ha ([5]; post-emergence, Postemergence, 31 g ai/ha, read-out: Plant response rating (scale of 0 to 100), Surinam Grass): 20%
pest or weed control at 62 g/ha [5, 20]: 60%
pest or weed control at 62 g/ha ([5]; pre-emergence, Preemergence, scale 0 to 100, 0 no effect, 100 complete control, read-out: Plant response rating, Surinam Grass): 0%
pest or weed control at 125 g/ha ([5]; pre-emergence, Preemergence, scale 0 to 100, read-out: Plant response rating, Surinam Grass): 50%
